One substance from patent US6540977B1, “Cyanidin compositions and therapeutic and diagnostic uses therefor” (Medarex, Inc., priority 1996, dated 2003) can be followed below.

The experiment has as its target T1, human FcγRI (Homo sapiens, UniProt P12314).
T1 construct: expressed in transfected cells; host or cells: mouse IIA1.6 B cells
The experiment can be described thus: Staining of IIA1.6 B cell transfectants expressing human FcγRI. It is filed as binding. The settings on record: unconjugated Cy5; FcγRI transfectants vs untransfected IIA1.6. As for the experimental part: To assess the specificity of binding of PE-Cy5 conjugates to FcγRI, a series of FcR-transfectants, each transfectant engineered to express one FcR molecular type, was tested. Recipient IIA1.6 cells mouse B cells are devoid of IgG receptors; samples were transfected with each of the genes encoding the different human Fc receptors for IgG (FcγRI, CD64; Van Vugt M J, et al., 1996, Blood 87:3593; FcγRIIa, CD32; FcγRIIb1, CD32, Van den Herik-Oudijk I E, et al., 1995, Blood 85:2202) and for IgA receptor FcαR, CD89 (Morton H C, et al., 1995, J Biol Chem 270:29781) derived from the A20 B cell lymphoma (Morton, H C, et al., supra). Transfectants were stained with different PE-Cy5 mAb conjugates (covalently linked to antibodies to CD3, CD4, or CD8). […]
Untransfected IIA1.6 B-cells and these cells transfected with the gene for human FcγRI (see references, supra), 2×10^5 cells in 20 μl per test, were stained for one hour at 4° C. with 10 μl Cy5. […] All fluorescence experiments were performed using band filter gates for excitation and emission wavelengths appropriate for PE-Cy5 described supra, so that diminished activity for Cy5 in comparison with PE and PE-Cy5 is due to comparatively low absorption by Cy5 at 488 nm.

T1 sequence (P12314 16-374): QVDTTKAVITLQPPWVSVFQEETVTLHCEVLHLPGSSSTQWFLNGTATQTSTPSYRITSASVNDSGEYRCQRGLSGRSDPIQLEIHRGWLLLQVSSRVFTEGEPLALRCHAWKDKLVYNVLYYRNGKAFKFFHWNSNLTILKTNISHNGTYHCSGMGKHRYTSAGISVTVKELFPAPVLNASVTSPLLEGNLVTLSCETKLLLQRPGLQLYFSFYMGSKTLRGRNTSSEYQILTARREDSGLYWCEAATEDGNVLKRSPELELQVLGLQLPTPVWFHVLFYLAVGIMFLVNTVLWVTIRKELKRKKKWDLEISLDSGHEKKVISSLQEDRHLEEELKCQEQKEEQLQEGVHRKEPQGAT

On to “5,5′-bis-sulfo-1,1′-(ε-carboxyphenyl)-3,3,3′,3′-tetramethylindodicarbocyanin-disuccinimidyl ester [Cy5]”, for which the “mean fluorescent intensity of transfectants versus control cells” value is given as “at least an order of magnitude greater”.
